Reference: PMC10222512, “Thiocarbonyl Derivatives of Natural Chlorins: Synthesis Using Lawesson’s Reagent and a Study of Their Properties” (Molecules, 2023)
Entries after “also recorded” stand apart in the source; their conditions may differ. Blank lines part the entries; values can stand above or below the compound they belong to.

Legend:
[1] = UV-Vis absorption and fluorescence spectra; assay type: physicochemical; details: dichloromethane; for fluorescence maximum: excitation at 550 nm
Procedure: Because the pigments noted above are photoactive compounds, it was important to determine the effect of the sulfur atom on their spectral characteristics.
Absorption and fluorescence spectra were recorded on Shimadzu UV1800 UV/VIS (Shimadzu, Duisburg, Germany) and Shimadzu RF-5301 (Shimadzu, Duisburg, Germany) spectrophotometers in quartz cells (0.4 × 1.0 cm) with an optical path length of 1 cm (spectral slit width 1 nm), using dichloromethane, acetone, and water as the solvents. Absorption spectra were recorded in the range of 350–750 nm. Fluorescence spectra were recorded in the range of 600–800 nm (excitation wavelength 550 nm), using dichloromethane, acetone, and water as the solvents. The fluorescence quantum yield was determined by the relative method. A solution of purpurin-18 in toluene was used as the standard. Both ^1H and ^13C NMR spectra were recorded on a Bruker DPX 300 spectrometer (Bruker, Alzenau, Germany). NMR samples were prepared in d6-acetone and CDCl3. Matrix-assisted laser desorption/ionization (MALDI) mass spectra were recorded on a Bruker Ultraflex TOF/TOF spectrometer (Bruker, Alzenau, Germany), with 2,5-dihydroxybenzoic acid as the matrix. Elemental analysis was performed on a Vario Micro Cube analyzer (Elementar, Berlin, Germany).

[2] = Chemical stability in 4% aqueous micellar solution of Kolliphor ELP (absorption band intensity vs time); assay type: physicochemical
Excerpt: The stability of pyropheophorbide a 13^1-thioketone (6) in 4% aqueous micellar solution of Kolliphor ELP over time was studied at a neutral pH by monitoring the variation in the Q2 band intensity in the absorption spectra of the sample.
At the next step, we studied the chemical stability of complex 7 obtained in Kolliphor ELP aqueous micellar solutions vs. time at various pH values based on the variation in the intensity of the Qy band in the EAS of the samples (Figure 4).
A solution of compounds (4) or (7) in dichloromethane (1–2 mL) was added dropwise with continuous argon bubbling to a freshly prepared 4% aqueous solution of Kolliphor ® ELP (5 mL) heated to 45 °C. Bubbling was continued until strong foaming started. A clear dark-red solution with a concentration of 0.25 mg/mL was obtained, which was then successively filtered through a 0.45 µm PTFE filter and a 0.22 µm PTFE filter. The concentrations of the resulting micellar solutions were monitored spectrophotometrically.

[3] = system: S37 murine sarcoma cell line; experiment: Dark cytotoxicity, MTT assay; assay type: cell-based
Procedure: (§2) To estimate cytotoxicity, cells were incubated with the substances for 72 h under dark conditions in a CO2 incubator.
(§3) Cell survival was estimated using the colorimetric MTT test (24 and 72 h after exposure), which is based on the ability of dehydrogenases in living cells to convert yellow water-soluble 3-(4-5-dimethyl-tetrazolyl-2)-2,5-diphenyltetrazolium bromide to blue crystals of formazan, whose amount is measured spectrophotometrically.

[4] = Dark cytotoxicity, MTT assay; assay type: cell-based, murine; details: mouse, S37 murine sarcoma cells; S37 cells; 72 h incubation of compounds with cells, no irradiation, MTT
Procedure: as §2, §3

[5] = Chemical stability in lysate of S37 sarcoma cells (Qy band intensity); assay type: physicochemical; details: Cell lysate S37 (pH = 7.8)
Procedure: (§1) The chemical stability of compounds 4 and 7 was also studied in the lysate of S37 sarcoma cells (pH = 7.8), as well as in the cell culture medium at different pH values. The stability was assessed by the change in the intensity of the Qy bands as described above.

[6] = Chemical stability in cell culture medium at different pH (Qy band intensity); assay type: physicochemical
Procedure: as §1

[7] = system: S37 murine sarcoma cell line; experiment: Photoinduced (combined) cytotoxicity, MTT assay after irradiation; assay type: cell-based; details: S37 cells; for IC50: 4 h PS incubation
Procedure: To estimate the combined effect (photoinduced and chemocytotoxic) of compound (4) and platinum complex (7), a two-step experiment was designed: incubation of cells with PS for 4 h and irradiation and subsequent incubation for 48 or 72 h followed by estimation of cell survival by the MTT assay.
The S37 murine sarcoma cell line (collection of the N.N. Blokhin Research Institute of Oncology) was used to estimate photoinduced activity and cytotoxicity.
Cells were cultured in DMEM medium (PanEco, Russia) with addition of 2 mM L-glutamine (PanEco, Moscow, Russia) and 10% fetal calf blood serum (FCS) (Corning, New York, NY, USA) in 25 cm^2 culture vials (Corning, USA) at 37 °C in a humid atmosphere containing 5% carbon dioxide. Upon passivation, the Versene solution (PanEco, Russia) was used to remove the cells from the substrate. For in vitro studies, cells of the 3rd and 4th passages were used with an optimal seeding concentration of 6 × 10^4 cells/mL.
The concentrations of the solutions obtained were 0.6 mg/mL for compound (4) and 0.1 mg/mL for compound (7). All the volumes obtained were filtered through a Millipore membrane filter with a pore size of 0.22 μm. Next, the samples were diluted in 24-well plates (Corning, USA) on the cell-culturing medium. The final concentration of the substances ranged from 32 ng/mL to 20 μg/mL.
To perform the experiments, S37 tumor cells were seeded into 96-well plates in the amount of 6 × 10^3 cells per well in a 100 μL volume. Exposure was performed in the exponential phase of cell growth 24 h after seeding. Solutions of compounds in the complete culture medium were added to the wells at final concentrations of 32 ng/mL to 20 μg/mL, in triplicate. The time of cell incubation with compounds before irradiation was 4 h. The culture medium was used as the blank. Light exposure was performed with a halogen lamp through a KS-10 broadband filter (λ > 620 nm). The light dose was 10 J/cm^2. After light exposure, the plates with cells were placed in a CO2 incubator for 24, 48, or 72 h.
Cell survival was estimated using the colorimetric MTT test (24 and 72 h after exposure), which is based on the ability of dehydrogenases in living cells to convert yellow water-soluble 3-(4-5-dimethyl-[…]-2)-2,5-diphenyltetrazolium bromide to blue crystals of formazan, whose amount is measured spectrophotometrically.
Before the test, cells were washed from cytotoxic agents. Then, 0.5% solution of 3-(4,5-dimethylthiazolyl-2)-2,5-diphenyltetrazolium bromide was added to the wells and the system was incubated for 3 h under standard conditions. After incubation, the medium with the MTT-reagent was removed and formazan crystals were dissolved for 10 min with dimethyl sulfoxide. Optical density was measured on a Multiscan FC multichannel plate photometer (Thermo scientific) at 550 nm.
The growth inhibition (GI) of cells in a culture was calculated using the following formula:GI(%) = [ODk − ODo/ODk)] × 100%, where ODo is the optical density of formazan in the test wells and ODk is the optical density of formazan in the control wells.
Quantitative parameters were calculated using the results of three independent tests.

long-wave absorption maximum (Q2 band) [1]: 666 nm | fluorescence maximum [1]: 680 nm
Compound: Pheophorbide a [Compound 3, reference compound]

decrease of Q2 band ([2]; 4% Kolliphor ELP micellar solution, neutral pH, after 3 h): more than 50% | conversion of thioketone to pyropheophorbide a (4) ([2]; 4% Kolliphor ELP micellar solution, neutral pH, after 24 h): completely converted | long-wave absorption maximum (Q2 band) [1]: 708 nm | fluorescence maximum [1]: 723 nm
Compound: C=Cc1c(C)c2cc3nc(c4c5[nH]c(cc6nc(cc1[nH]2)C(C)=C6CC)c(C)c5C(=S)C4)[C@@H](CCC(=O)OC)[C@@H]3C [Compound 6, Pyropheophorbide a 13^1-Thioketone]

Content, % ([5]; 0 min): 100% | Intensity at 666 nm ([5]; 0 min): 0.9538 | Content, % ([5]; 4 h): 91% | Intensity at 666 nm ([5]; 4 h): 0.8679 | Content, % ([5]; 24 h): 82% | Intensity at 666 nm ([5]; 24 h): 0.7821 | Content, % ([5]; 72 h): 76% | Intensity at 666 nm ([5]; 72 h): 0.7249 | Content, % ([6]; pH 4, 0 min): 100% | Intensity at 666 nm ([6]; pH 4, 0 min): 0.9538 | Content, % ([6]; pH 4, 4 h): 70% | Intensity at 666 nm ([6]; pH 4, 4 h): 0.6677 | Content, % ([6]; pH 4, 24 h): 60% | Intensity at 666 nm ([6]; pH 4, 24 h): 0.5723 | Content, % ([6]; pH 4, 72 h): 58% | Intensity at 666 nm ([6]; pH 4, 72 h): 0.5532 | Content, % ([6]; pH 7, 0 min): 100% | Intensity at 666 nm ([6]; pH 7, 0 min): 0.9538 | Content, % ([6]; pH 7, 4 h): 93% | Intensity at 666 nm ([6]; pH 7, 4 h): 0.887 | Content, % ([6]; pH 7, 24 h): 87% | Intensity at 666 nm ([6]; pH 7, 24 h): 0.8298 | Content, % ([6]; pH 7, 72 h): 79% | Intensity at 666 nm ([6]; pH 7, 72 h): 0.7535 | Content, % ([6]; pH 9, 0 min): 100% | Intensity at 666 nm ([6]; pH 9, 0 min): 0.9538 | Content, % ([6]; pH 9, 4 h): 85% | Intensity at 666 nm ([6]; pH 9, 4 h): 0.8107 | Content, % ([6]; pH 9, 24 h): 78% | Intensity at 666 nm ([6]; pH 9, 24 h): 0.744 | Intensity at 666 nm ([6]; pH 9, 72 h): 0.7058 | fluorescence maximum [1]: 684 nm
Compound: C=Cc1c(C)c2cc3nc(c4c5[nH]c(cc6nc(cc1[nH]2)C(C)=C6CC)c(C)c5C(=O)C4)[C@@H](CCC(=O)OC)[C@@H]3C [Compound 4, pyropheophorbide a methyl ester, reference compound]
cytotoxic effect without light irradiation (in words) ([3]; S37 sarcoma cells, 72 h incubation, dark): no cytotoxic effect on cells; also recorded: does not have a pronounced cytotoxicity | IC50 at 72 h [4]: > 36.4 µM | IC50 ([7]; Mus musculus, S37, light or radiation study, irradiation at 10 J/cm^2, MTT after 24 h, read-out: IC50, Photoinduced cytotoxicity): 4.198 ± 0.013 µM | IC50 ([7]; Mus musculus, S37, light or radiation study, irradiation at 10 J/cm^2, MTT after 48 h, read-out: IC50, Combined cytotoxicity): 4.076 ± 0.011 µM | IC50 ([7]; Mus musculus, S37, light or radiation study, irradiation at 10 J/cm^2, MTT after 72 h, read-out: IC50, Combined cytotoxicity): 4.023 ± 0.013 µM | photoinduced activity, times lower than that of the platinum complex ([7]; versus platinum complex 7): 8.8 times

chemical stability (Qy band intensity) ([2]; Kolliphor ELP micellar solution, pH = 7): remained stable for 24 h | Content, % ([5]; 0 min): 100% | Intensity at 675 nm ([5]; 0 min): 0.913 | Content, % ([5]; 4 h): 89% | Intensity at 675 nm ([5]; 4 h): 0.8126 | Content, % ([5]; 24 h): 84% | Intensity at 675 nm ([5]; 24 h): 0.7669 | Content, % ([5]; 72 h): 79% | Intensity at 675 nm ([5]; 72 h): 0.7213 | Content, % ([6]; pH 4, 0 min): 100% | Intensity at 675 nm ([6]; pH 4, 0 min): 0.913 | Content, % ([6]; pH 4, 4 h): 25% | Intensity at 675 nm ([6]; pH 4, 4 h): 0.2282 | Content, % ([6]; pH 4, 24 h): 17% | Intensity at 675 nm ([6]; pH 4, 24 h): 0.1552 | Content, % ([6]; pH 4, 72 h): 11% | Intensity at 675 nm ([6]; pH 4, 72 h): 0.1004 | Content, % ([6]; pH 7, 0 min): 100% | Intensity at 675 nm ([6]; pH 7, 0 min): 0.913 | Content, % ([6]; pH 7, 4 h): 97% | Intensity at 675 nm ([6]; pH 7, 4 h): 0.8856 | Content, % ([6]; pH 7, 24 h): 94% | Intensity at 675 nm ([6]; pH 7, 24 h): 0.8582 | Content, % ([6]; pH 7, 72 h): 91% | Intensity at 675 nm ([6]; pH 7, 72 h): 0.833 | Content, % ([6]; pH 9, 0 min): 100% | Intensity at 675 nm ([6]; pH 9, 0 min): 0.913 | Content, % ([6]; pH 9, 4 h): 87% | Intensity at 675 nm ([6]; pH 9, 4 h): 0.7943 | Content, % ([6]; pH 9, 24 h): 75% | Intensity at 675 nm ([6]; pH 9, 24 h): 0.6847 | Content, % ([6]; pH 9, 72 h): 65% | Intensity at 675 nm ([6]; pH 9, 72 h): 0.5277
Compound: C=Cc1c(C)c2cc3nc(c4c5[nH]c(cc6nc(cc1[nH]2)C(C)=C6CC)c(C)c5C(=[S+][Pt-2]([NH3+])([NH3+])[Cl])C4)[C@@H](CCC(=O)OC)[C@@H]3C.O=[N+]([O-])[O-] (some centres unmarked) [Compound 7, Platinum Complex of Pyropheophorbide a 13^1-Thioketone]
chemical stability (Qy band) ([2]; Kolliphor ELP micellar solution, acid, pH = 4): hypsochromic shift in the Qy band to the 666 nm region | chemical stability (Qy band intensity) ([2]; Kolliphor ELP micellar solution, alkaline, pH = 9): a precipitate formed and the intensity of the Qy absorption band decreased | IC50 ([3]; S37 cells, 72 h incubation of compounds with cells, no irradiation, MTT): 0.271 ± 0.007 µM | IC50 ([7]; irradiation at 10 J/cm^2, MTT after 24 h, read-out: IC50, Photoinduced cytotoxicity): 0.478 ± 0.009 µM | IC50 ([7]; irradiation at 10 J/cm^2, MTT after 48 h, read-out: IC50, Combined cytotoxicity): 0.146 ± 0.007 µM | IC50 ([7]; irradiation at 10 J/cm^2, MTT after 72 h, read-out: IC50, Combined cytotoxicity): 0.098 ± 0.005 µM | increase of photocytotoxicity on increasing incubation time after irradiation ([7]; from 24 h to 72 h after irradiation): 5 fold

long-wave absorption maximum (Q2 band) [1]: 706 nm | fluorescence maximum [1]: 719 nm
Compound: C=Cc1c(C)c2cc3nc(c4c5[nH]c(cc6nc(cc1[nH]2)C(C)=C6CC)c(C)c5C(=S)C4C(=O)OC)[C@@H](CCC(=O)OC)[C@@H]3C (some centres unmarked) [Compound 5]
